Peptide text beside a SMILES is read from it. * marks the point of attachment. Cbz = O=C(OCc1ccccc1)*; CH2F = FC*

This is an account of results in US20240009212A1, “PHOSPHAPLATIN COMPOUNDS AS THERAPEUTIC AGENTS SELECTIVELY TARGETING HIGHLY GLYCOLYTIC TUMOR CELLS AND METHODS THEREOF” (Promontory Therapeutics Inc., priority 2020, published 2024).

What all share (type): cell-based, mouse
In test [1] the test system is L929dt and L929^dt cells. Put plainly: Mitochondrial ROS production (MitoSOX), sensitive cells. The protocol: Total ROS production and mitochondrial membrane potential were simultaneously measured using a FACScalibur flow cytometer. Pretreated cells with PT-112 were incubated with DiOC6 at 20 nM (Molecular Probes, Madrid) and DHE at 2 μM (Molecular Probes, Madrid) for 30 min at 37° C. For specific mitochondrial ROS production, cells were incubated with MitoSOX™ (5 μM, ThermoFisher, Rockford, USA) for 30 minutes at 37° C.
In order to obtain more evidence about the mechanism of action of PT-112, its effect on ROS production was analyzed. First, a time-course determination of total ROS generation by detection of 2HE oxidation was performed by flow cytometry. […] To complete this study, specific mitochondrial ROS production upon PT-112 treatment using the MitoSOX™ reagent was determined.
However, this effect can be due to direct reactivity of the thiol group with Pt, inactivating the cytotoxic potential of PT-112, and not to the elimination of ROS generation. This hypothesis was confirmed by incubating PT-112 with GSH during 1 h in the absence of cells and adding this GSH-treated PT-112 to cells, showing no cytotoxicity (FIG. 6). […] Since PT-112-induced ROS generation seems to be concentrated in mitochondria, the mitochondria-specific ROS scavenger MitoTEMPO was used. Cells (3×10^4) were seeded in a 96-well plate in phenol red-free medium and were incubated with 100 μM of MitoTEMPO for 2 h. Then, 10 μM of PT-112 was added and incubated for 48 and 72 h at 37° C.

The test system of test [2] is L929dt and L929^dt cells. As to the kind of experiment: ROS scavengers on PT-112-induced cell death. As to conditions: for effect on PT-112-induced cell death: ROS scavenger plus 10 μM PT-112 (GSH 5 mM, 72 h).
Test [3] relates to glycolytic cells sensitive to PT-112-induced cell death. Put plainly: Apoptosis and necroptosis inhibition of PT-112-induced cell death. The settings on record: 1 h pretreatment (Z-VAD-fmk 50 μM, necrostatin-1 30 μM), then 10 μM PT-112 for 48 h. The protocol:
Cells (3×10^4) were seeded in a 96-well plate and incubated with a pan-caspase-inhibitor Z-VAD-fmk (50 μM, MedChem Express, New Jersey, USA) and/or RIPK-1 inhibitor necrostatin-1 (30 μM, MedChem Express, New Jersey, USA) for 1 h. After that, cells were treated with 10 μM of PT-112 and incubated for 48 h at 37° C. Both inhibitors were refreshed in their corresponding well after 24 h. Finally, cell death was assessed using flow cytometry after incubation with annexin-V-FITC and 7-AAD for 10 minutes. […] For this purpose, a FITC-labelled anti-caspase-3 antibody that detects cleaved, active caspase-3 by flow cytometry was used. Cells (3×10^4) were treated with 10 μM of PT-112 for 24-72 h. Then, cells were incubated with anti-cleaved caspase-3 labelled with FITC dye and analyzed by flow cytometry. […] The implications of caspase-3 activation in this process were investigated by tested the ability of the general pan-caspase inhibitor Z-VAD-fmk and/or the necroptosis inhibitor necrostatin-1 to prevent cell death induced by PT-112 (FIG. 4B). Cells were pretreated for 1 h with or without pan-caspase or/and necroptosis inhibitors and then, incubated with 10 μM of PT-112 for 48 h. Flow cytometry analysis was carried-out using annexin-V-FITC and 7-AAD staining. Cells were stained simultaneously with annexin-V-FITC and 7-AAD and the percentage of the different populations analyzed by flow cytometry. […]

The subject of test [4] is L929dt and L929^dt cybrid cells. As to the kind of experiment: MTT relative cell growth, glycolytic cells. The settings on record: 72 h, highest dose (10 μM). The protocol:
(§1) Cell Culture and Generation of Cybrids Mouse fibroblast cell lines L929 and L929-derived (L929dt) were routinely cultured in high glucose DMEM medium with GlutaMAX (Life Technologies, Paisley, UK) supplemented with 10% of fetal calf serum (FCS), penicillin (1000 U/ml) and streptomycin (10 mg/ml) (PanBiotech, Aidenbach, Germany) at 37° C. and 5% CO2 using standard procedures. The transmitochondrial cell lines L929^dt and dt^L929 were obtained as previously described (Schmidt, W., et al. (1993) 53:799-805) and cultured with the identical medium used with the parental cells. For L929-ρ^0 cells, complete DMEM medium was also supplemented with 100 pyruvate (100 μg/ml) and uridine (50 μg/ml).
(§2) Relative cell growth was measured using the Mossman's method. 3×10^4 cells were seeded per well in a 96-well flat-bottomed plate and incubated with increasing concentrations of PT-112 or cisplatin (2, 6, and 10 μM) for 24-72 h at 37° C. […] During the incubation time, viable cells reduce MTT solution in insoluble purple formazan crystals, solubilized afterwards with isopropanol and 0.05 M HCl mixture and the absorbance was measured in a microplate reader (Dynatec, Pina de Ebro, Spain).
(§3) The sensitivity of L929, L929dt and cybrid cells to PT-112 was compared. […] The ability of both drugs to inhibit cell growth was assessed by the MTT reduction method. […]

The test system of test [5] is L929 and dt^L929 cells. As to the kind of experiment: MTT relative cell growth, OXPHOS-competent cells. The settings on record: 72 h, higher doses. The protocol:
as §1, §2, §3

The subject of test [6] is L929-ρ^0 cells. Put plainly: MTT relative cell growth, rho0 cells. As to conditions: 2, 6 and 10 μM, 24-72 h. The protocol:
as §1
Relative cell growth was measured using the Mossman's method. 3×10^4 cells were seeded per well in a 96-well flat-bottomed plate and incubated with increasing concentrations of PT-112 or cisplatin (2, 6, and 10 μM) for 24-72 h at 37° C. Then, 10 μl of a 5 mg/ml MTT dye solution was added per well and incubated for 3 hours. During the incubation time, viable cells reduce MTT solution in insoluble purple formazan crystals, solubilized afterwards with isopropanol and 0.05 M HCl mixture and the absorbance was measured in a microplate reader (Dynatec, Pina de Ebro, Spain). […]

In test [7] the test system is L929, L929dt and cybrids cells. Put plainly: Cytotoxicity, annexin-V-FITC/7-AAD flow cytometry. The settings on record: 10 μM, 24, 48 or 72 h. The method, then:
Cytotoxicity assays were carried-out as follows: 100 μl aliquots of 3×10^4 cells were seeded per well in 96-well plate and 10 μM of PT-112 or cisplatin was added and incubated for 24-72 h at 37° C. Cell death was analyzed using a FACScalibur flow cytometer (BD Biosciences) after incubation with Annexin-V-FITC and/or 7-AAD (BD Biosciences, Madrid) in annexin binding buffer (140 mM NaCl, 2.5 mM CaCl2), 10 mM HEPES/NaOH, pH 7.4) for 10 minutes.
To test cell death induction by PT-112 and cisplatin, the parental cells L929, L929dt and cybrids cells were incubated with 10 μM of PT-112 or cisplatin for 24, 48 or 72 h and, at the end of the incubations, simultaneously stained with annexin-V-FITC and 7-AAD and analyzed by flow cytometry. […] The results are shown as mean±SD of at least 2 independent experiments made in duplicate. […] On the contrary, in cells treated with PT-112, this population is not observed at any time point in sensitive L929dt and L929^dt cells, and a population double positive for both markers is at short times of exposure, increasing with time (FIG. 2B, bar sections colored in white). Finally, at longer times, a population positive for 7-AAD and negative for annexin-V staining appears for both cell lines, typical of necrotic cell death (FIG. 2B, sections colored in grey).

As for `CC1(C)CC(NC(=O)C[P+](c2ccccc2)(c2ccccc2)c2ccccc2)CC(C)(C)N1[O]` [MitoTEMPO], in test [1] (100 μM MitoTEMPO 2 h, then 10 μM PT-112, L929dt cells), the “inhibition of mitochondrial superoxide generation induced by PT-112” value is “only partially”. In test [1] (100 μM MitoTEMPO, L929dt cells), the “inhibition of mitochondrial superoxide generation induced by antimycin A” value was “almost completely abolish”. The “protection from PT-112-induced L929dt cell death” value in test [2] (100 μM MitoTEMPO, 10 μM PT-112, statistically significant after 72 h) is on record as “partial protection”.

Consider `O=C(O)c1ccc(/C2=C3\C=CC(=N3)/C(c3ccc(C(=O)O)cc3)=c3/cc/c4[n]3[Mn]([Cl])[n]3c2ccc3/C(c2ccc(C(=O)O)cc2)=C2/C=CC(=N2)\C=4c2ccc(C(=O)O)cc2)cc1` [MnTBAP], for which the “effect on PT-112-induced cell death” value in test [2] is “neither of them were able to prevent”.

Take `CC1(C)CCCC(C)(C)N1[O]` [TEMPO]: in test [2], the “effect on PT-112-induced cell death” value was “neither of them were able to prevent”.

For the compound `COC(=O)C[C@H](NC(=O)[C@H](C)NC(=O)[C@@H](NC(=O)OCc1ccccc1)C(C)C)C(=O)CF` [Z-VAD-fmk] (Cbz-Val-Ala-Asp(OMe)-CH2F), the “prevention of cell death induced by PT-112” value in test [3] is “did not inhibit cell death”.

In the case of `N.N.[Cl][Pt][Cl]` [cisplatin], the growth inhibition is 95% in test [4] and 70% in test [5]. For the same compound, in test [6], the cell growth result was “inhibited the growth”. The cell death induction result in test [7] is reported as “induces cell death in all cell lines”.

Take `N[C@@H](CCC(=O)N[C@@H](CS)C(=O)NCC(=O)O)C(=O)O` [glutathione]: in test [2], the “effect on PT-112-induced cell death” value is “completely abolished”.

In the case of `CN1C(=O)C(Cc2c[nH]c3ccccc23)NC1=S` (centres unmarked) [necrostatin-1], the “prevention of cell death induced by PT-112” value in test [3] is reported as “did not inhibit cell death”.

`Cc1c(C)c2c(c(C)c1O)CC[C@@](C)(CCC[C@H](C)CCC[C@H](C)CCCC(C)C)O2` [α-tocopherol]: in test [2], the “effect on PT-112-induced cell death” value is given as “neither of them were able to prevent”.

On to antimycin A, for which the “mitochondrial superoxide anion, MFI” value in test [1] (L929dt cells, MitoSOX, FIG. 7) turned out to be 128.
